Measurements taken from PubChem BioAssay (NCI).
Where “and” joins values, the source holds several entries; their conditions need not be identical. Equal entries are not always repeated.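 48-hour exposure; five concentrations; linearly interpolated endpoints. GI50 is the concentration that inhibits growth by half. Definition used: TGI = concentration required for complete inhibition of growth.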

Key:
Experiment in all cases: NCI tumour cell line growth inhibition, 48 h
BT-549 breast = tested on: BT-549 breast
NCI/ADR-RES ovarian = tested on: NCI/ADR-RES ovarian
MDA-MB-231 breast = tested on: MDA-MB-231 breast
HS 578T breast = tested on: HS 578T breast
DU-145 prostate = tested on: DU-145 prostate
MCF7 breast = tested on: MCF7 breast
MDA-MB-435 = tested on: MDA-MB-435
LXFL 529 NSCLC = tested on: LXFL 529 NSCLC
HOP-18 NSCLC = tested on: HOP-18 NSCLC

COc1c(Cl)c2c(c(OC)c1OC)-c1ccc(SC)c(=O)cc1[C@@H](NC(=O)OCC(F)(F)F)CC2
GI50 (BT-549 breast): < 0.01 µM
TGI (BT-549 breast): 0.956 µM
GI50 (NCI/ADR-RES ovarian): 0.0182 µM
GI50 (MDA-MB-231 breast): < 0.01 µM
TGI (MDA-MB-231 breast): 3.24 µM
GI50 (HS 578T breast): < 0.01 µM
TGI (HS 578T breast): > 100 µM
GI50 (DU-145 prostate): < 0.01 µM
TGI (DU-145 prostate): 0.871 µM
GI50 (MCF7 breast): < 0.01 µM
TGI (MCF7 breast): > 100 µM
GI50 (MDA-MB-435): < 0.01 µM
TGI (MDA-MB-435): < 0.01 µM

CCCn1c(SCC)c2cc3cc4ccccc4cc3cc2c1-c1nc(F)nc(F)n1
TGI (LXFL 529 NSCLC): > 100 µM

CN(C)C1CCN(C(=O)c2ccc(NC(=O)Nc3ccc(-c4nc(N5CCOCC5)nc(N5CCOCC5)n4)cc3)cc2)CC1
GI50 (BT-549 breast): 0.018 µM and 0.0199 µM and 0.0434 µM
TGI (BT-549 breast): 0.239 µM and 0.206 µM and 0.635 µM
GI50 (NCI/ADR-RES ovarian): 29.4 µM and 4.87 µM
TGI (NCI/ADR-RES ovarian): > 100 µM
GI50 (MDA-MB-231 breast): < 0.0115 µM and 0.0128 µM and 0.0168 µM
TGI (MDA-MB-231 breast): 1.71 µM and 2.5 µM and 0.286 µM
GI50 (HS 578T breast): < 0.01 µM and 0.00879 µM and 0.025 µM
TGI (HS 578T breast): 0.061 µM and 0.0697 µM and 0.343 µM
GI50 (DU-145 prostate): 0.0157 µM and 0.0156 µM and 0.0258 µM
TGI (DU-145 prostate): 14.6 µM and 2.5 µM and 7.51 µM
GI50 (MCF7 breast): 0.00665 µM and 0.00604 µM
TGI (MCF7 breast): 2.5 µM and > 10 µM
GI50 (MDA-MB-435): 0.0148 µM and 0.013 µM and 0.0221 µM
TGI (MDA-MB-435): 0.133 µM and 0.284 µM and 0.324 µM

O=C1c2ccccc2C2(O)NC(=S)N(c3ccccc3)C12O (centres undefined)
TGI (HOP-18 NSCLC): > 100 µM
TGI (LXFL 529 NSCLC): > 100 µM

COc1cc(C=Nc2ccc(C(C)C)cc2)cc(OC)c1OC
TGI (HOP-18 NSCLC): > 100 µM
TGI (LXFL 529 NSCLC): > 100 µM

O=c1ccnc2c1ccc1[nH]cccc12
TGI (HOP-18 NSCLC): > 100 µM
TGI (LXFL 529 NSCLC): > 100 µM

Cc1ccc(NC(=O)CCC/C(CC(=O)c2ccc(Br)cc2)=N/NC(=O)CC#N)cc1
TGI (LXFL 529 NSCLC): > 100 µM

CC(=O)/C(=C\C1=CCCO1)C(=O)Nc1ccccc1C
TGI (HOP-18 NSCLC): > 100 µM
TGI (LXFL 529 NSCLC): > 100 µM

COc1ccc2c(CN3CCC[C@H]3C(=O)O)cc3cc4c(cc3c2c1)OCO4
GI50 (BT-549 breast): 15.7 µM
TGI (BT-549 breast): 43.3 µM
GI50 (NCI/ADR-RES ovarian): 23.8 µM
TGI (NCI/ADR-RES ovarian): > 100 µM
GI50 (MDA-MB-231 breast): 23.5 µM
TGI (MDA-MB-231 breast): > 100 µM
GI50 (HS 578T breast): 11.6 µM
TGI (HS 578T breast): 48 µM
GI50 (DU-145 prostate): 19.7 µM
TGI (DU-145 prostate): > 100 µM
GI50 (MCF7 breast): 13.5 µM
TGI (MCF7 breast): 62.3 µM
GI50 (MDA-MB-435): 14.7 µM
TGI (MDA-MB-435): 30.4 µM

CC(=O)Nc1c(C)ccc2c1C(=O)c1ccccc1C2=O
TGI (HOP-18 NSCLC): > 100 µM
TGI (LXFL 529 NSCLC): > 100 µM

CCOc1ccc(Nc2nc(-c3ccc4c(c3)NC(=O)CO4)cs2)cc1
GI50 (BT-549 breast): 2.56 µM
TGI (BT-549 breast): 20.7 µM
GI50 (NCI/ADR-RES ovarian): 4.12 µM
TGI (NCI/ADR-RES ovarian): > 100 µM
GI50 (MDA-MB-231 breast): 21.1 µM
TGI (MDA-MB-231 breast): > 100 µM
GI50 (HS 578T breast): 22.5 µM
TGI (HS 578T breast): > 100 µM
GI50 (DU-145 prostate): 30.8 µM
TGI (DU-145 prostate): > 100 µM
GI50 (MCF7 breast): 3.18 µM
TGI (MCF7 breast): 23.3 µM
GI50 (MDA-MB-435): 2.95 µM
TGI (MDA-MB-435): 11.3 µM

CCOC(=O)C1=C(Nc2ccc(Cl)cc2Cl)OC/C1=N\NS(=O)(=O)c1ccc(C)cc1
TGI (HOP-18 NSCLC): > 100 µM
TGI (LXFL 529 NSCLC): > 100 µM

O=C1c2cc([N+](=O)[O-])ccc2-c2cccc(F)c21
TGI (BT-549 breast): > 100 µM
TGI (NCI/ADR-RES ovarian): > 100 µM
TGI (MDA-MB-231 breast): > 100 µM
TGI (HS 578T breast): > 100 µM
TGI (DU-145 prostate): > 100 µM
TGI (MCF7 breast): > 100 µM
TGI (MDA-MB-435): > 100 µM

CC1(C)CCC[C@@]2(C)C1CC[C@H]1CC(O)C3(C)CCC12C3 (some centres undefined)
TGI (LXFL 529 NSCLC): 31.2 µM

CC/C(=C(/CC)c1ccc(O)cc1)c1ccc([O-])cc1.CC/C(=C(/CC)c1ccc(O)cc1)c1ccc([O-])cc1.O=C([CH-]C(=O)c1ccccc1)c1ccccc1.O=C([CH-]C(=O)c1ccccc1)c1ccccc1.[Ti+4]
GI50 (HOP-18 NSCLC): 24.4 µM
TGI (HOP-18 NSCLC): 39.3 µM
